Legend:
[1] = test system: corneal angiogenesis; test: Inhibitory effects against corneal angiogenesis in animal models having corneal damage (subconjunctival injection); assay type: in vivo, Sprague Dawley rats; conditions: subconjunctival injection 20 μl; KR 0.3 mg/ml, Avastin 10 mg/ml; 1 week after administration
Description: (§1) The tests were performed by using Sprague Dawley rats (8 weeks old, male) as animals having corneal damage (15 rats for the experiment group; and 1 rat for normal group, respectively). The corneal damage was induced by applying a cotton swab coated with silver nitrate to the surface of the rat corneas, as as to induce a damage having a diameter of 2 mm in the central cornea. On the third day after inducing the corneal damages, we confirmed the establishment of corneal angiogenesis-inducing models and then subconjunctivally injected a solution (20 μl) prepared by dissolving the compound of Preparation Example 23, i.e., (2R,3R,4S)-6-amino-4-[N-(4-chlorophenyl)-N-(1H-imidazol-2-ylmethyl)amino]-3-hydroxy-2-methyl-2-dimethoxymethyl-3,4-dihydro-2H-1-benzopyran (KR-31831) in phosphate buffered saline (PBS) containing 10% PEG 400, in the concentration of 0.3 mg/ml. In case of the control group, the PBS (20 μl) containing 10% PEG 400 was subconjunctivally injected. As a positive control, a solution (20 μl) prepared by dissolving Avastin (used as an angiogenesis inhibitor) in PBS in the concentration of 10 mg/ml was subconjunctivally injected. The evaluations quantifying the photographs of FIG. 1 were performed by using the Image J (NIH, USA) program and the results thereof were shown in FIG. 2.

[2] = test system: corneal angiogenesis; test: Inhibitory effects against corneal angiogenesis, subconjunctival injection and eye drop-administration; assay type: in vivo, Sprague Dawley rats; conditions: subconjunctival injection 20 μl plus eye drop 50 μl; KR 0.3 mg/ml, Avastin 10 mg/ml
Description: as §1, with “In case of the control group, the PBS (20 μl) containing 10% PEG 400 was subconjunctivally injected. As a positive control, a solution (20 μl) prepared by dissolving Avastin (used as an angiogenesis inhibitor) in PBS in the concentration of 10 mg/ml was subconjunctivally injected.” left out
Except for performing both the subconjunctival injection and the eye drop-administration of (2R,3R,4S)-6-amino-4-[N-(4-chlorophenyl)-N-(1H-imidazol-2-ylmethyl)amino]-3-hydroxy-2-methyl-2-dimethoxymethyl-3,4-dihydro-2H-1-benzopyran and Avastin, the inhibitory effects against angiogenesis were evaluated according to the same manners as in Example 1. […]

[3] = test system: VEGF receptor 2 (FLK-1); test: Expression of VEGF receptor 2 (FLK-1) in corneal tissue by RT-PCR; assay type: in vivo, rats; conditions: subconjunctival injection 20 μl; KR 0.3 mg/ml, Avastin 10 mg/ml
Description: The tests were performed for confirming corneal angiogenesis as a marker. To a Trizole™ solution (200 μl), were added each corneal tissue obtained from the rats of Example 1. Total RNAs were isolated and then cDNAs were prepared by using a reverse transcriptase. Each cDNA (5 μl) was mixed with the primer set of FLK-1 and then PCR amplication was performed in a thermocycler under the following conditions; denaturation at 94° C. for 5 minutes, and then 35 cycles of denaturation at 94° C. for 20 seconds, annealing at 58° C. for 1 minute, and extension at 72° C. for 25 seconds. Each PCR product was loaded on 1% agarose gel; and the resulting ethidium bromide fluorescent bands were identified.

[4] = test system: corneal epithelial cells; test: Effects on normal regeneration of corneal epithelial cells in animal models; assay type: in vivo, rats; conditions: eye drop 50 μl twice a day
Description: Animal models having damage in the corneal epithelial cells were established by anesthetizing rats (8 weeks old, 200 g to 250 g) with a mixed solution of rompun and zoletil (1 ml/kg) and then scraping the corneal epithelial cells at the center of the cornea in a circular form having 2 mm diameter with a surgical knife. The removal of corneal epithelial cells was confirmed with a 1% fluorescein solution. The eye drop formulation (50 μl) used in Example 2 was administered twice a day, i.e., every 12 hours. The evaluations quantifying the photographs of FIG. 5 were performed by using the Image J (NIH, USA) program and the results thereof were shown in FIG. 6.

[5] = test system: retinal angiogenesis; test: Laser-induced retinal damage model, retinal angiogenesis by dextran-FITC fluorescence; assay type: in vivo, Brown Norway rats; conditions: 2 weeks after administration
Description: The tests were performed by using Brown Norway rats (8 weeks old, male) as animals having retinal damage (15 rats for the experiment group; and 1 rat for normal group, respectively). The retinal Bruch's membrane of each Brown Norway rat was damaged using a Zeiss 532s laser at the intensity of […], 30 ms. On the third day after the laser-damaging, the drug was administered into the vitreous humor in order to observe the retinal vessels. The compound of the present invention, i.e., (2R,3R,4S)-6-amino-4-[N-(4-chlorophenyl)-N-(1H-imidazol-2-ylmethyl)amino]-3-hydroxy-2-methyl-2-dimethoxymethyl-3,4-dihydro-2H-1-benzopyran was administered with the solutions (10 μl of each solution) obtained by dissolving in PBS containing 30% PEG 400 and 10% DMSO, in the concentrations of 0.1 mg/ml and 0.3 mg/ml. Avastin was administered with the solution (10 μl) obtained by dissolving in PBS in the concentration of 2.5 mg/ml. In case of the control group, the PBS (10 μl) was administered. In addition, (2R,3R,4S)-6-amino-4-[N-(4-chlorophenyl)-N-(1H-imidazol-2-ylmethyl)amino]-3-hydroxy-2-methyl-2-dimethoxymethyl-3,4-dihydro-2H-1-benzopyran was intraperitoneally administered with the solution obtained by dissolving in PBS containing 30% PEG 400 and 10% DMSO, in the dose of 25 mg/kg. 2 weeks after the drug administrations, dextran-FITC was injected into the left ventricle in the dose of 25 mg/kg, followed by enucleating the eye after 5 minutes therefrom; and then fixing in a 10% formalin solution. The cornea and the eye lens were removed from the fixed eye, which was then observed under a fluorescence microscope. Angiogenesis was identified by the intensity and leakage of dextran-FITC in the laser-induced damage site; and the results thereof were shown in FIG. 7. The evaluations quantifying the photographs of FIG. 7 were performed by using the Image J (NIH, USA) program and the results thereof were shown in FIG. 8.

## COC(OC)[C@]1(C)Oc2ccc(N)cc2[C@H](N(Cc2ncc[nH]2)c2ccc(Cl)cc2)[C@H]1O [KR-31831, (2R,3R,4S)-6-amino-4-[N-(4-chlorophenyl)-N-(1H-imidazol-2-ylmethyl)amino]-3-hydroxy-2-methyl-2-dimethoxymethyl-3,4-dihydro-2H-1-benzopyran]
[1]
  corneal angiogenesis in comparison with the corneal angiogenesis (100%) of the control group: 52.6±10%
[2]
  angiogenesis in comparison with the angiogenesis (100%) of the control group: 25.1±10.8%
[3]
  FLK-1 expression in the cornea (control group 100%): about 30%
[4]; 0 hour after the administration
  healing rate of corneal epithelial damage: 52±9%
[4]; 18 hours after the administration
  healing rate of corneal epithelial damage: 55±9%
[4]; 36 hours after the administration
  healing rate of corneal epithelial damage: 94±8%
[5]; 0.1 mg/ml, VI (10 μl into the vitreous humor)
  fluorescence intensity at laser-induced damage site (surrounding vessels = 100): 53±2.8
[5]; 0.3 mg/ml, VI (10 μl into the vitreous humor)
  fluorescence intensity at laser-induced damage site (surrounding vessels = 100): 45±3.1
[5]; 25 mg/kg, IP (intraperitoneal)
  fluorescence intensity at laser-induced damage site (surrounding vessels = 100): 51±5
